Measurements from publication PMC12036814 (Angewandte Chemie (International Ed. in English), 2025).

Columns and labels:
SCARB1 = target: T1, SCARB1 (Homo sapiens, UniProt Q8WTV0); experiment: Microscale thermophoresis (MST) binding
T1 construct: purchased Hölzel Biotech SC1-H82E5
T1 sequence (Q8WTV0 1-552): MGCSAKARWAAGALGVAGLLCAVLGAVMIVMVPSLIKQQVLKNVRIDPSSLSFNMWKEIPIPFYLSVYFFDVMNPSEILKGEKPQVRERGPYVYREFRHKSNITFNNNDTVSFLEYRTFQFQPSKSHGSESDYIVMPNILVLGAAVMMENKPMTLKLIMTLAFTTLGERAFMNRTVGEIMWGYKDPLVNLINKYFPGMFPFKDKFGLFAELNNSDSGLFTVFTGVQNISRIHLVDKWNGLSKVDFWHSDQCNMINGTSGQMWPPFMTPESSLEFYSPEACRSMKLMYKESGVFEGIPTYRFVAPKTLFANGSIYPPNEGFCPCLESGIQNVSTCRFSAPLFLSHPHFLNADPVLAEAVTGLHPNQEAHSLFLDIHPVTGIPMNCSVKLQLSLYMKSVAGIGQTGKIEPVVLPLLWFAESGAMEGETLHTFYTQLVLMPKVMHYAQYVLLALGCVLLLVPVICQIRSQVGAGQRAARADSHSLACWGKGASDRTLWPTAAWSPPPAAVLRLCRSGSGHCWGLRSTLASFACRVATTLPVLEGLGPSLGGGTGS
Experimental: reaction was terminated by addition of 800 μL EtOAc+0.5% AcOH, 300 μL H2O and 100 μL internal standard (13,14-dihydro-15-ketoprostaglandin -d4, 300 pmol/sample, Cayman Chemical, Ann Arbor, USA, Cat# 10010606). Of the organic phase 600 μL was transferred into a fresh Eppendorf tube and the solvent removed in a SpeedVac. The residue was dissolved in 100 μL acetonitrile/ H2O (1:1) and measured with LC-MS/MS. Gradient: Solvent A = H2O + 0.1% formic acid, solvent B = acetonitrile + 0.5% formic acid, flow rate = 0 .4 mL/min, run length 6 min, gradient = 0 min 30% B, 1 min 30% B, 2 min 31.5% B, 2.1 min 95% B, 4 min 95% B, 4.1 min 30% B, 6 min 30% B. MS settings: Capillary = 3.0 kV, sampling cone = […], extraction cone […], source temperature = 100 °C, desolvat ion temperature = 350 °C, cone gas flow = 50.0 L/h, desolvation gas flow = 650.0 L/h, scan time = 0.250 s, inter-scan time = 0.020 s, mass range = 100 -800 Da. Masses of 15 -ketoprostaglandin (349.2 Da, collision energy = 21.0 eV), 13,14 -dihydro-15-ketoprostaglandin (351.2 Da, collision energy = 18.0 eV) and 13,14-dihydro-15-ketoprostaglandin (355.2 Da, collision energy = 10.0 eV) were set for MRM. The areas under the curve (AUC) were used to quantify 15 -keto-PGE2 and 13,14 -dihydro-15-keto-PGE2 levels by determining peak areas in relation to internal standard […]. The experiment was […]
Microscale thermophoresis (MST) was performed as follows: Monolith His -Tag Labeling Kit RED -tris-NTA 2nd Generation (NanoTemper Technologies, Munich, Germany, Cat# MO -L018) was used for KD determination as recommended by the purchaser. Briefly, SCARB1 ( Hölzel Biotech, Cologne, Germany, Cat# SC1-H82E5) concentration (50 nM) was adjusted in assay buffer and labelled by the RED -tris-NTA dye (100 nM). This mixture was added to compound dilution series (c = 1 mM to 30 nM) and measured using Monolith NT.115 (NanoTemper Technologies, Munich, Germany ). The experiment was performed once and analysed with the MO Affinity Analysis software (NanoTemper).
NUDT1 target validation efforts:
Recombinant NUDT1 expression & purification […]

AIFM1 = target: T2, AIFM1 (Homo sapiens, UniProt O95831); experiment: Gel-based labelling of recombinant AIFM1 spiked into HEK-293 lysate; format: binding; conditions: 5 μM probe, AIFM1 spiked in HEK-293 lysate
T2 construct: made in house; host or cells: E. coli Rosetta2
T2 sequence (O95831 102-613): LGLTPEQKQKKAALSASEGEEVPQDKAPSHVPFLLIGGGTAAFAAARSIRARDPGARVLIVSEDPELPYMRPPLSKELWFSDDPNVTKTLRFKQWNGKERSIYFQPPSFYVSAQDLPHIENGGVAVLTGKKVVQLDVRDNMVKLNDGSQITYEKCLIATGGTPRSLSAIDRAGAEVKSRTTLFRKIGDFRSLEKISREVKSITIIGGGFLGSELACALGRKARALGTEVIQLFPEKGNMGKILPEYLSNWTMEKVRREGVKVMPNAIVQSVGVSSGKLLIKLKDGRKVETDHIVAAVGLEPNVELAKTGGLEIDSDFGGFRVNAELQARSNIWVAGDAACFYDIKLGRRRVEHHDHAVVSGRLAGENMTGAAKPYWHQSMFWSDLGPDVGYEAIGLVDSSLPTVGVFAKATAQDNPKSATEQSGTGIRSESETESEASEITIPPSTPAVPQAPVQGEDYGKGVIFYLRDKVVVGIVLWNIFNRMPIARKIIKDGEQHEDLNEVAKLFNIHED
Experimental: AIFM1 expression & purification
Recombinant AIFM1 was expressed in a Rosetta2 E. coli strain. Bacterial growth was conducted in LB media supplemented with riboflavin and FAD shaking at 37°C and 180 rpm. Expression was induced with 1.0 mM IPTG and incubated for further 16 h before harvesting. Cells were harvested on ice in PBS and cell pellets stored at -20°C. Cells were lysed by French press and the 6xHis-tagged constructs were purified by Immobilized Metal Affinity Chromatography using Ni Sepharose (6 Fast Flow, GE). The centrifugation-cleared bacterial lysate was bound to beads in binding buffer (200 mM NaCl, 20 mM Tris/Cl pH = 7.4). […]
For gel-based fluorescence labelling of recombinant AIFM1, 1.7 µM recombinant protein was spiked - in to PBS or PBS -diluted HEK293 cell lysate ( 100 µg per reaction sample). […]
Click Master-mix (8 µL, 100 µM TAMRA-azide, Baseclick, Neuried, Germany, Cat# BCFA-008-10, 500 µM BTTAA ligand, Jena Bioscience, Jena, Germany, CLK -067, 1 mM CuSO4) was added and the CuAAC reaction started by addition of 2 µL of aq. sodium ascorbate (c end= 2 mM). […] Fluorescence scanning was performed using a Las-3000 fluorescence darkbox (Fujifilm, Minato, Japan) with a Fujinon VRF 43LMD Lens, 605DF40 filter and 520 nm EPI excitation wavelength and loading controls were developed with Coomassie stain afterwards. […]

C#CCCC1(CCN2CCN(c3cc4c(cc3F)c(=O)c(C(=O)O)cn4C3CC3)CC2)N=N1 [Cipro P1]
Kd (SCARB1; acquisition software MO.Control, read-out: binding affinity (Kd)): 394 µM | binding to SCARB1 (SCARB1; aggregation/precipitation at high compound concentrations): weak binding | gel-based labelling of recombinant AIFM1 by probe (AIFM1): strong fluorescent band corresponding to the molecular weight of AIFM1
